Data: patent US8697739B2, “Bicyclic acetyl-CoA carboxylase inhibitors and uses thereof” (Novartis AG, priority 2010, dated 2014)

The molecules below were run against T1, human acetyl-CoA carboxylase 2 (ACC2) (Homo sapiens, UniProt O00763) (assay: Acetyl-CoA carboxylase enzyme assay (malonyl-CoA formation by LC/MS/MS)). Conditions: recombinant human ACC2 (aa 144-2458); read-out: IC50 ACC2.
T1 construct: The cDNA encoding amino acids 144 to 2458 of human acetyl-CoA carboxylase 2; made in house; host or cells: Sf9 insect cells (baculovirus, pFastBac1)
T1 sequence (O00763 144-2458): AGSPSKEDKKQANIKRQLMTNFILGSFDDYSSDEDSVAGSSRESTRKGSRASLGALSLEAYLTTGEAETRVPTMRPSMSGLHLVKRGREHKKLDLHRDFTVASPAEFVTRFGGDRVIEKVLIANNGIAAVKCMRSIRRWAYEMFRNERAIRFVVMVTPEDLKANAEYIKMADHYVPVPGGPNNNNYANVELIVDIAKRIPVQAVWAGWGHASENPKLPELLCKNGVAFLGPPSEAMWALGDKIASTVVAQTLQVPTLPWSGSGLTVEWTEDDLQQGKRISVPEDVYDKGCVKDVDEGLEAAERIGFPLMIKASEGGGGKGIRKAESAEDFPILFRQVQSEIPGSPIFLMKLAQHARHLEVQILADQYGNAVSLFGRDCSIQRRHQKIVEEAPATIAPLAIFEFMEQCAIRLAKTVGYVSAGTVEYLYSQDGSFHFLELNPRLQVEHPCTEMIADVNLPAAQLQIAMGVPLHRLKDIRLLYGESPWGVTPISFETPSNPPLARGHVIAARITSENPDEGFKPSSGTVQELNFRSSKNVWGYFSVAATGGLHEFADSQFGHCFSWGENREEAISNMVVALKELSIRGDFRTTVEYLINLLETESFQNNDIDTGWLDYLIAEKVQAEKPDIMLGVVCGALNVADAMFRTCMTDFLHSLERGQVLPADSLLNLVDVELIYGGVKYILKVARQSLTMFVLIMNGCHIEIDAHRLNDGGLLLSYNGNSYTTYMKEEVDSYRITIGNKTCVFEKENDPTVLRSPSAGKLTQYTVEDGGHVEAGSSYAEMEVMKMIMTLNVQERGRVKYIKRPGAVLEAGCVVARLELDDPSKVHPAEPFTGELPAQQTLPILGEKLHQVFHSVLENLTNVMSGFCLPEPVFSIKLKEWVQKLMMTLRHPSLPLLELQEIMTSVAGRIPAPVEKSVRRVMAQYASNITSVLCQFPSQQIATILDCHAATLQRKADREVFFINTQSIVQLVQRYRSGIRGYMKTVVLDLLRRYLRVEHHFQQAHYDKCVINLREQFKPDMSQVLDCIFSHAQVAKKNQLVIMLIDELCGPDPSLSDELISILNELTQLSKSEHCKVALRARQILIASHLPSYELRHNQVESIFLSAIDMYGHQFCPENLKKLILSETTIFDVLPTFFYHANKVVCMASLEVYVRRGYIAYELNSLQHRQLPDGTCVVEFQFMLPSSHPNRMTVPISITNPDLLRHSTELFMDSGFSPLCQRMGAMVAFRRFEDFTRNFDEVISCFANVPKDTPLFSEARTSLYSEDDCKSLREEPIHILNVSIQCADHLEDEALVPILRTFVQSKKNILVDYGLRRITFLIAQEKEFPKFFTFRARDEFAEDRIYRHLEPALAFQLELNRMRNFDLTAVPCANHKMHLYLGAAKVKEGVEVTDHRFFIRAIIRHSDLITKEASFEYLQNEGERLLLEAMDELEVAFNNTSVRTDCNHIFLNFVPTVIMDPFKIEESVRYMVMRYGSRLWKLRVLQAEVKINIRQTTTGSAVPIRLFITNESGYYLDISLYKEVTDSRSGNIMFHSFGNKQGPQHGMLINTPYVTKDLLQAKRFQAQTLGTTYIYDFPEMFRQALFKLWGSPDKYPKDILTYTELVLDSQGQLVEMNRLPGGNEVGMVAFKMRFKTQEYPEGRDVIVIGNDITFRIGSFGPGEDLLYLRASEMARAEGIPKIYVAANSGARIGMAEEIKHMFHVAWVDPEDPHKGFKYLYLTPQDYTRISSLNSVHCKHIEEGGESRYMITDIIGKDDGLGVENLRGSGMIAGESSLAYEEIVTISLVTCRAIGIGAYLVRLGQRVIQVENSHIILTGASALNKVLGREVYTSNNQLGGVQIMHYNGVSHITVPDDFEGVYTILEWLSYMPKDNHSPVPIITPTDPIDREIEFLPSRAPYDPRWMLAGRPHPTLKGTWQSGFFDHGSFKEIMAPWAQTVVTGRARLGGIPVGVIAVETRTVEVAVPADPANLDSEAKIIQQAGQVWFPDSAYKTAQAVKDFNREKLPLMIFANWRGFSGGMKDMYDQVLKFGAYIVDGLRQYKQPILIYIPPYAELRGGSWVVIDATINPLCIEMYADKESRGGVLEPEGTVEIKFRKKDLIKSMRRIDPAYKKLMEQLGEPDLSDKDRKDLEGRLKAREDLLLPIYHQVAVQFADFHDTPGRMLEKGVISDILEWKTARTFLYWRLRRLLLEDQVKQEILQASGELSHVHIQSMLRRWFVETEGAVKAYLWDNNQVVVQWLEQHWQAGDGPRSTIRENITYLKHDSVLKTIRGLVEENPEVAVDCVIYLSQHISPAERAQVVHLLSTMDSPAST
Assay type: biochemical
Procedure, shortened: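 Malonyl-CoA formation was read by LC/MS/MS MRM against a [13C3]-malonyl-CoA internal standard, after acetic acid quench. The enzyme was baculovirus/Sf9-expressed human ACC2 residues 144–2458, given 15 minutes room-temperature compound preincubation in HEPES pH 7.5 buffer with MgCl2, citrate and DTT. Substrate solution held 50 μM acetyl-CoA, 120 μM ATP and 2 mM KHCO3.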
In the case of `CC(C)OC(=O)c1ccc(NS(=O)(=O)c2ccc3[nH]c(Nc4ccc(F)cc4)nc3c2)cc1` [Example 522, isopropyl 4-(2-(4-fluorophenylamino)-1H-benzo[d]imidazole-5-sulfonamido)benzoate], the IC50 is reported as 320 nM.
With `COc1ccc(Nc2nc3cc(S(=O)(=O)Nc4ccc(C(=O)OC(C)C)cc4)ccc3[nH]2)cc1` [Example 523, isopropyl 4-(2-(4-methoxyphenylamino)-1H-benzo[d]imidazole-5-sulfonamido)benzoate] the IC50 was 463 nM.
Molecule `COc1cccc(Nc2nc3cc(S(=O)(=O)Nc4ccc(C(=O)OC(C)C)cc4)ccc3[nH]2)c1` [Example 524, isopropyl 4-(2-(3-methoxyphenylamino)-1H-benzo[d]imidazole-5-sulfonamido)benzoate] has an IC50 of 360 nM.
`CC(C)OC(=O)c1ccc(NS(=O)(=O)c2ccc3[nH]c(Nc4cccc(C#N)c4)nc3c2)cc1` [Example 525, isopropyl 4-(2-(3-cyanophenylamino)-1H-benzo[d]imidazole-5-sulfonamido)benzoate] was tested, and the IC50 was 166 nM.
Molecule `CC(C)OC(=O)c1ccc(NS(=O)(=O)c2ccc3[nH]c(Nc4ccc5c(c4)OCCO5)nc3c2)cc1` [Example 526, isopropyl 4-(2-(2,3-dihydrobenzo[b][1,4]dioxin-6-ylamino)-1H-benzo[d]imidazole-5-sulfonamido)benzoate] has an IC50 of 178 nM.
Work on `CC(C)OC(=O)c1ccc(NS(=O)(=O)c2ccc3[nH]c(Nc4ccc5nsnc5c4)nc3c2)cc1` [Example 527, isopropyl 4-(2-(benzo[c][1,2,5]thiadiazol-5-ylamino)-1H-benzo[d]imidazole-5-sulfonamido)benzoate] yielded an IC50 of 169 nM.
In the case of `CC(C)OC(=O)c1ccc(NS(=O)(=O)c2ccc3[nH]c(Nc4ccc(S(N)(=O)=O)cc4)nc3c2)cc1` [Example 528, isopropyl 4-(2-(4-sulfamoylphenylamino)-1H-benzo[d]imidazole-5-sulfonamido)benzoate], the IC50 is reported as 41 nM.
`CC(C)OC(=O)c1ccc(NS(=O)(=O)c2ccc3[nH]c(Nc4ccc(Cl)cc4)nc3c2)cc1` [Example 529, isopropyl 4-(2-(4-chlorophenylamino)-1H-benzo[d]imidazole-5-sulfonamido)benzoate] was tested, and the IC50 was 644 nM.
Work on `COc1cc(Nc2nc3cc(S(=O)(=O)Nc4ccc(C(=O)OC(C)C)cc4)ccc3[nH]2)cc(OC)c1` [Example 530, isopropyl 4-(2-(3,5-dimethoxyphenylamino)-1H-benzo[d]imidazole-5-sulfonamido)benzoate] yielded an IC50 of 612 nM.
Work on `COc1ccc(Nc2nc3cc(S(=O)(=O)Nc4ccc(C(=O)OC(C)C)cc4)ccc3[nH]2)cc1OC` [Example 531, isopropyl 4-(2-(3,4-dimethoxyphenylamino)-1H-benzo[d]imidazole-5-sulfonamido)benzoate] yielded an IC50 of 248 nM.
With `CC(C)OC(=O)c1ccc(NS(=O)(=O)c2ccc3[nH]c(Nc4ccc(N5CCOCC5)cc4)nc3c2)cc1` [Example 532, isopropyl 4-(2-(4-morpholinophenylamino)-1H-benzo[d]imidazole-5-sulfonamido)benzoate] the IC50 was 109 nM.
Work on `CC(C)OC(=O)c1ccc(NS(=O)(=O)c2ccc3[nH]c(Nc4cccc(F)c4F)nc3c2)cc1` [Example 533, isopropyl 4-(2-(2,3-difluorophenylamino)-1H-benzo[d]imidazole-5-sulfonamido)benzoate] yielded an IC50 of 641 nM.
`CCOC(=O)Nc1ccc(Nc2nc3cc(S(=O)(=O)Nc4ccc(C(=O)OC(C)C)cc4)ccc3[nH]2)cc1` [Example 534, isopropyl 4-(2-(4-(ethoxycarbonylamino)phenylamino)-1H-benzo[d]imidazole-5-sulfonamido)benzoate] showed an IC50 of 524 nM.
For `CC(C)OC(=O)c1ccc(NS(=O)(=O)c2ccc3[nH]c(Nc4cccc(F)c4)nc3c2)cc1` [Example 535, isopropyl 4-(2-(3-fluorophenylamino)-1H-benzo[d]imidazole-5-sulfonamido)benzoate], the IC50 was 225 nM.
`Cc1cccc(Nc2nc3cc(S(=O)(=O)Nc4ccc(C(=O)OC(C)C)cc4)ccc3[nH]2)c1` [Example 536, isopropyl 4-(2-(m-tolylamino)-1H-benzo[d]imidazole-5-sulfonamido)benzoate] gave an IC50 of 412 nM.
For `CCN(CC)c1ccc(Nc2nc3cc(S(=O)(=O)Nc4ccc(C(=O)OC(C)C)cc4)ccc3[nH]2)cc1` [Example 537, isopropyl 4-(2-(4-(diethylamino)phenylamino)-1H-benzo[d]imidazole-5-sulfonamido)benzoate], the IC50 was 290 nM.
In the case of `CC(C)OC(=O)c1ccc(NS(=O)(=O)c2ccc3[nH]c(Nc4cccc([N+](=O)[O-])c4)nc3c2)cc1` [Example 538, isopropyl 4-(2-(3-nitrophenylamino)-1H-benzo[d]imidazole-5-sulfonamido)benzoate], the IC50 is reported as 77 nM.
In the case of `CC(C)OC(=O)c1ccc(NS(=O)(=O)c2ccc3[nH]c(Nc4ccc(N5CCOCC5)nc4)nc3c2)cc1` [Example 539, isopropyl 4-(2-(6-morpholinopyridin-3-ylamino)-1H-benzo[d]imidazole-5-sulfonamido)benzoate], the IC50 is reported as 221 nM.
`Cc1cccc(C)c1Nc1nc2cc(S(=O)(=O)Nc3ccc(C(=O)OC(C)C)cc3)ccc2[nH]1` [Example 540, isopropyl 4-(2-(2,6-dimethylphenylamino)-1H-benzo[d]imidazole-5-sulfonamido)benzoate] was tested, and the IC50 was greater than 139000 nM.
Work on `CC(=O)c1cccc(Nc2nc3cc(S(=O)(=O)Nc4ccc(C(=O)OC(C)C)cc4)ccc3[nH]2)c1` [Example 541, isopropyl 4-(2-(3-acetylphenylamino)-1H-benzo[d]imidazole-5-sulfonamido)benzoate] yielded an IC50 of 86 nM.
`CC(C)OC(=O)c1ccc(NS(=O)(=O)c2ccc3[nH]c(Nc4ccc(F)c(Cl)c4)nc3c2)cc1` [Example 542, isopropyl 4-(2-(3-chloro-4-fluorophenylamino)-1H-benzo[d]imidazole-5-sulfonamido)benzoate] was tested, and the IC50 was 575 nM.
`COc1cc(Nc2nc3cc(S(=O)(=O)Nc4ccc(C(=O)OC(C)C)cc4)ccc3[nH]2)cc(OC)c1OC` [Example 543, isopropyl 4-(2-(3,4,5-trimethoxyphenylamino)-1H-benzo[d]imidazole-5-sulfonamido)benzoate] was tested, and the IC50 was 280 nM.
`CC(C)OC(=O)c1ccc(NS(=O)(=O)c2ccc3[nH]c(Nc4ccc(Cl)c(S(N)(=O)=O)c4)nc3c2)cc1` [Example 544, isopropyl 4-(2-(4-chloro-3-sulfamoylphenylamino)-1H-benzo[d]imidazole-5-sulfonamido)benzoate] gave an IC50 of 35 nM.
With `CC(C)OC(=O)c1ccc(NS(=O)(=O)c2ccc3[nH]c(Nc4ccc(-n5cccn5)cc4)nc3c2)cc1` [Example 545, isopropyl 4-(2-(4-(1H-pyrazol-1-yl)phenylamino)-1H-benzo[d]imidazole-5-sulfonamido)benzoate] the IC50 was 623 nM.
With `CC(C)OC(=O)c1ccc(NS(=O)(=O)c2ccc3[nH]c(Nc4ccccc4F)nc3c2)cc1` [Example 546, isopropyl 4-(2-(2-fluorophenylamino)-1H-benzo[d]imidazole-5-sulfonamido)benzoate] the IC50 was 845 nM.
With `CC(C)OC(=O)c1ccc(NS(=O)(=O)c2ccc3[nH]c(Nc4cccc(Cl)c4)nc3c2)cc1` [Example 547, isopropyl 4-(2-(3-chlorophenylamino)-1H-benzo[d]imidazole-5-sulfonamido)benzoate] the IC50 was 374 nM.
With `CC(=O)c1ccc(Nc2nc3cc(S(=O)(=O)Nc4ccc(C(=O)OC(C)C)cc4)ccc3[nH]2)cc1` [Example 548, isopropyl 4-(2-(4-acetylphenylamino)-1H-benzo[d]imidazole-5-sulfonamido)benzoate] the IC50 was 75 nM.
`CC(C)OC(=O)c1ccc(NS(=O)(=O)c2ccc3[nH]c(Nc4cccc(-n5ccsc5=O)c4)nc3c2)cc1` [Example 549, isopropyl 4-(2-(3-(2-oxothiazol-3(2H)-yl)phenylamino)-1H-benzo[d]imidazole-5-sulfonamido)benzoate] gave an IC50 of 737 nM.
For `CC(C)OC(=O)c1ccc(NS(=O)(=O)c2ccc3[nH]c(Nc4ccc([N+](=O)[O-])cc4)nc3c2)cc1` [Example 550, isopropyl 4-(2-(4-nitrophenylamino)-1H-benzo[d]imidazole-5-sulfonamido)benzoate], the IC50 was 240 nM.
Molecule `CC(C)OC(=O)c1ccc(NS(=O)(=O)c2ccc3[nH]c(Nc4ccc(N(C)C)cc4)nc3c2)cc1` [Example 551, isopropyl 4-(2-(4-(dimethylamino)phenylamino)-1H-benzo[d]imidazole-5-sulfonamido)benzoate] has an IC50 of 282 nM.
With `CC(C)OC(=O)c1ccc(NS(=O)(=O)c2ccc3[nH]c(Nc4ccc(C#N)cc4)nc3c2)cc1` [Example 552, isopropyl 4-(2-(4-cyanophenylamino)-1H-benzo[d]imidazole-5-sulfonamido)benzoate] the IC50 was 334 nM.
Molecule `CC(C)OC(=O)c1ccc(NS(=O)(=O)c2ccc3[nH]c(Nc4cccc(C(C)O)c4)nc3c2)cc1` (centres unmarked) [Example 553, isopropyl 4-(2-(3-(1-hydroxyethyl)phenylamino)-1H-benzo[d]imidazole-5-sulfonamido)benzoate] has an IC50 of 119 nM.
With `CC(C)OC(=O)[C@H]1CC[C@H](NS(=O)(=O)c2ccc3[nH]c(Nc4ccccc4)nc3c2)CC1` [Example 554, (1r,4r)-isopropyl 4-(2-(phenylamino)-1H-benzo[d]imidazole-5-sulfonamido)cyclohexanecarboxylate] the IC50 was 28 nM.
`COc1ccc(Nc2nc3cc(S(=O)(=O)N[C@H]4CC[C@H](C(=O)OC(C)C)CC4)ccc3[nH]2)cc1` [Example 555, (1r,4r)-isopropyl 4-(2-(4-methoxyphenylamino)-1H-benzo[d]imidazole-5-sulfonamido)cyclohexanecarboxylate] was tested, and the IC50 was 30 nM.
Work on `CC(C)OC(=O)[C@H]1CC[C@H](NS(=O)(=O)c2ccc3[nH]c(-c4ccc(C(C)O)cc4)nc3c2)CC1` (some centres unmarked) [Example 556, (1r,4r)-isopropyl 4-(2-(4-(1-hydroxyethyl)phenyl)-1H-benzo[d]imidazole-5-sulfonamido)cyclohexanecarboxylate] yielded an IC50 of 25 nM.
